Nine compounds from patent publication US20260317324A1, “BIFUNCTIONAL COMPOUNDS FOR DEGRADING BRAF VIA UBIQUITIN PROTEOSOME PATHWAY” (Nurix Therapeutics, Inc., priority 2023, published 2026) can be followed below.

Molecules are shown by their SMILES.

Assay type in all cases: cell-based
One assay concerns the target T1, BRAF V600E (Homo sapiens, UniProt P15056, V600E).
T1 construct: endogenous C-terminal HiBiT fusion tag on BRAF V600E allele; endogenous in cells; host or cells: A375 clone 1F10 (CRISPR-Cas9 knock-in of the HiBiT tag; parental A375 from ATCC)
Nature of the assay: BRAF HiBiT degradation assay, C-terminal HiBiT-tagged BRAF V600E A375 cells (clone 1F10), Nano-Glo HiBiT Lytic assay. The conditions noted are these: for Dmax: A-375. A digest of the protocol: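 Endogenous BRAF V600E-HiBiT A375 (1F10), 10,000 cells/well, 24 h preculture; cpd 11-pt, 1 μM–0.01 nM half-log, n=2, 0.2% DMSO; HiBiT lytic detection 10 min RT; DC50 = fitted conc at Y=50; Obs. Dmax vs DMSO.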

A further assay addresses T2, BRAF G466V (Homo sapiens, UniProt P15056, G466V).
T2 construct: Horizon Discovery (HCT-116 BRAF−/− cells); host or cells: HCT-116 BRAF−/− cells, clone 8, lentiviral transduction
Nature of the assay: BRAF HiBiT degradation assay, C-terminal HiBiT-tagged BRAF G466V overexpressed in HCT-116 BRAF−/− cells (clone 8), Nano-Glo HiBiT Lytic assay. A digest of the protocol:
(§1)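 Luminescence from the lytic HiBiT reagent, read after 10 min at room temperature, measured tagged BRAF remaining in lentivirally transduced HCT-116 BRAF−/− cells. Compounds were tested from 1 μM to 0.01 nM in half-log steps at 0.2% DMSO. DC50 values were fitted at 50% remaining.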
(The HiBiT peptide binds its large partner to form an active luciferase.)

The target in another assay is T3, BRAF G469A (Homo sapiens, UniProt P15056, G469A).
T3 construct: Horizon Discovery (HCT-116 BRAF−/− cells); host or cells: HCT-116 BRAF−/− cells, clone 34, lentiviral transduction
Briefly: BRAF HiBiT degradation assay, C-terminal HiBiT-tagged BRAF G469A overexpressed in HCT-116 BRAF−/− cells (clone 34), Nano-Glo HiBiT Lytic assay. A digest of the protocol: as §1

The next assay addresses T4, BRAF D594G (Homo sapiens, UniProt P15056, D594G).
T4 construct: Horizon Discovery (HCT-116 BRAF−/− cells); host or cells: HCT-116 BRAF−/− cells, clone 63, lentiviral transduction
Nature of the assay: BRAF HiBiT degradation assay, C-terminal HiBiT-tagged BRAF D594G overexpressed in HCT-116 BRAF−/− cells (clone 63), Nano-Glo HiBiT Lytic assay. Summed up: as §1

Setting [1] is: A375 (BRAF V600E), DC50 at 50%: fitted conc. at Y=50.
Where [2] appears, read: A375 (BRAF V600E), percentage protein degraded at maximal compound effect relative to DMSO.
Where [3] appears, read: BRAF G466V, DC50 at 50%: fitted conc. at Y=50.
Where [4] appears, read: HCT-116, BRAF G466V, percentage protein degraded at maximal compound effect relative to DMSO.
Setting [5] is: Class 2, BRAF G469A, DC50 at 50%: fitted conc. at Y=50.
[6] abbreviates: HCT-116, Class 2, BRAF G469A, percentage protein degraded at maximal compound effect relative to DMSO.
[7] abbreviates: BRAF D594G, DC50 at 50%: fitted conc. at Y=50.
Setting [8] is: HCT-116, BRAF D594G, percentage protein degraded at maximal compound effect relative to DMSO.
Where [9] appears, read: A375 (BRAF V600E, Class 1), DC50 at 50% degradation.
[10] abbreviates: A375 (BRAF V600E, Class 1), observed Dmax, % protein degraded relative to DMSO control.
The mark [11] stands for this setting: BRAF G466V (Class 3), HCT-116 BRAF−/− cells, DC50 at 50% degradation.
[12] abbreviates: BRAF G466V (Class 3), HCT-116 BRAF−/− cells, observed Dmax relative to DMSO control.
The mark [13] stands for this setting: BRAF G469A (Class 2), HCT-116 BRAF−/− cells, DC50 at 50% degradation.
The mark [14] stands for this setting: BRAF G469A (Class 2), HCT-116 BRAF−/− cells, observed Dmax relative to DMSO control.
The mark [15] stands for this setting: BRAF D594G (Class 3), HCT-116 BRAF−/− cells, DC50 at 50% degradation.
The mark [16] stands for this setting: BRAF D594G (Class 3), HCT-116 BRAF−/− cells, observed Dmax relative to DMSO control.

T3 sequence (P15056 whole entry G469A): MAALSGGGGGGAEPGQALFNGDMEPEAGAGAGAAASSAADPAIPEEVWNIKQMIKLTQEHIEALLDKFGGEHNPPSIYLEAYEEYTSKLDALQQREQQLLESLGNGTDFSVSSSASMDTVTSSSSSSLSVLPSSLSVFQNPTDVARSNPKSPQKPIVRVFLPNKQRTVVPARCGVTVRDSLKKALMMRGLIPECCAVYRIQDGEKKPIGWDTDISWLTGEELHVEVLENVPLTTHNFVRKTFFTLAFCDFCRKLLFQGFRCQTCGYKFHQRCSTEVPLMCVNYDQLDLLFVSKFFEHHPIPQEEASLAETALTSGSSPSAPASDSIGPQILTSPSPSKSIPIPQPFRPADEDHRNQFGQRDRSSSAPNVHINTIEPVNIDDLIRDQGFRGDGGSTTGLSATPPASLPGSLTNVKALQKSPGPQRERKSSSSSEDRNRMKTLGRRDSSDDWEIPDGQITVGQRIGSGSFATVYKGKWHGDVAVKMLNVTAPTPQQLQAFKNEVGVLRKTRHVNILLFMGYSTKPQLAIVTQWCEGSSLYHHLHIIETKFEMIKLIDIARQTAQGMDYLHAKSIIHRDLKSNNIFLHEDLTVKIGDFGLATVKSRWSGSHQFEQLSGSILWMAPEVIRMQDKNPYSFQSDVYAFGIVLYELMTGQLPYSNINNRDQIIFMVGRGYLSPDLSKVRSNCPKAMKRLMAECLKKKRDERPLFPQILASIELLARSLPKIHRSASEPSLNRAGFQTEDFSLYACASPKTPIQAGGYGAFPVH
T1 sequence (P15056 whole entry V600E, the tested form may be a part): as the sequence (P15056 whole entry G469A) above, with A469G, V600E counted along it
T4 sequence (P15056 whole entry D594G): as the sequence (P15056 whole entry G469A) above, with A469G, D594G counted along it
T2 sequence (P15056 whole entry G466V): as the sequence (P15056 whole entry G469A) above, with G466V, A469G counted along it

Take `CCCS(=O)(=O)Nc1cccc(-c2nc(C)sc2-c2ccnc(Nc3ccc(N4CCN(CC5CCN(c6ccc(C7CCC(=O)NC7=O)cn6)CC5)CC4)cn3)n2)c1F` (racemic) [Compound 62, Rac-N-[3-(5-{2-[(5-{4-[(1-{5-[(3R)-2,6-dioxopiperidin-3-yl]pyridin-2-yl}piperidin-4-yl)methyl]piperazin-1-yl}pyridin-2-yl)amino]pyrimidin-4-yl}-2-methyl-1,3-thiazol-4-yl)-2-fluorophenyl]propane-1-sulfonamide]: the DC50 was less than 10 nM at BRAF V600E (setting [1]), 10 to 50 nM on BRAF G466V (setting [3]), less than 10 nM at BRAF G469A (setting [5]) and greater than 500 nM on BRAF D594G (setting [7]). The Dmax on BRAF V600E (setting [2]) was greater than 70%; on BRAF G466V (setting [4]), 30 to 70%; at BRAF G469A (setting [6]), 30 to 70%; at BRAF D594G (setting [8]) it was 30 to 70%.

Regarding `CCCS(=O)(=O)Nc1cccc(-c2cn(-c3ccc(N4CCN(CC5CCN(c6ccc([C@H]7CCC(=O)NC7=O)cn6)CC5)CC4)cc3)nc2-c2ccncc2)c1F` [Compound 2, N-{3-[1-(4-{4-[(1-{5-[(3R)-2,6-dioxopiperidin-3-yl]pyridin-2-yl}piperidin-4-yl)methyl]piperazin-1-yl}phenyl)-3-(pyridin-4-yl)-1H-pyrazol-4-yl]-2-fluorophenyl}propane-1-sulfonamide], the DC50 at BRAF V600E (setting [1]) fell in the range of 50 to 500 nM; on BRAF G466V (setting [3]), 10 to 50 nM; on BRAF G469A (setting [5]), 10 to 50 nM; at BRAF D594G (setting [7]) it was 10 to 50 nM. Moreover, the Dmax at BRAF V600E (setting [2]) was greater than 70%; on BRAF G466V (setting [4]), 30 to 70%; at BRAF G469A (setting [6]) it was 30 to 70%; at BRAF D594G (setting [8]), 30 to 70%.

As for `CCCS(=O)(=O)Nc1cccc(-c2nc(C(C)(C)C)sc2-c2ccnc(Nc3ccc(C4CCN(C(=O)C5CCN(c6cc(C7CCC(=O)NC7=O)ccn6)CC5)CC4)cc3)n2)c1F` (racemic) [Compound 163, Rac-N-(3-{2-tert-butyl-5-[2-({4-[1-(1-{4-[(3R)-2,6-dioxopiperidin-3-yl]pyridin-2-yl}piperidine-4-carbonyl)piperidin-4-yl]phenyl}amino)pyrimidin-4-yl]-1,3-thiazol-4-yl}-2-fluorophenyl)propane-1-sulfonamide], the 50% degradation concentration (DC50) on BRAF V600E (setting [1]) was 50 to 500 nM; on BRAF G466V (setting [3]), greater than 500 nM; on BRAF G469A (setting [5]) it was greater than 500 nM; on BRAF D594G (setting [7]), greater than 500 nM. The Dmax at BRAF V600E (setting [2]) was 30 to 70%; at BRAF G466V (setting [4]), less than 30%; on BRAF G469A (setting [6]) it was less than 30%; at BRAF D594G (setting [8]), less than 30%.

Take `CCCS(=O)(=O)Nc1cccc(-c2nc(C3CCN(C(=O)C4CCN(CC5CCN(c6ccc(C7CCC(=O)NC7=O)cn6)CC5)CC4)CC3)sc2-c2ccncc2)c1F` (racemic) [Compound 211, Rac-N-{3-[2-(1-{1-[(1-{5-[(3R)-2,6-dioxopiperidin-3-yl]pyridin-2-yl}piperidin-4-yl)methyl]piperidine-4-carbonyl}piperidin-4-yl)-5-(pyridin-4-yl)-1,3-thiazol-4-yl]-2-fluorophenyl}propane-1-sulfonamide]: the 50% degradation concentration (DC50) at BRAF V600E (setting [1]) was 50 to 500 nM; at BRAF G466V (setting [3]), greater than 500 nM; at BRAF G469A (setting [5]) it was greater than 500 nM; at BRAF D594G (setting [7]) it was greater than 500 nM. In addition, the Dmax on BRAF V600E (setting [2]) is greater than 70%; on BRAF G466V (setting [4]) it was 30 to 70%; at BRAF G469A (setting [6]), less than 30%; at BRAF D594G (setting [8]) it was 30 to 70%.

For `O=C1CCN(c2ccc(N3CCC(CN4CCN(c5ccc(-n6cc(-c7cc(Cl)cc(NS(=O)(=O)N8CC(F)C8)c7F)c(-c7ccncc7)n6)c(F)c5)CC4)CC3)cc2)C(=O)N1` [Compound 339, N-[5-chloro-3-(1-{4-[4-({1-[4-(2,4-dioxo-1,3-diazinan-1-yl)phenyl]piperidin-4-yl}methyl)piperazin-1-yl]-2-fluorophenyl}-3-(pyridin-4-yl)-1H-pyrazol-4-yl)-2-fluorophenyl]-3-fluoroazetidine-1-sulfonamide], the half-maximal degradation concentration (DC50) was less than 10 nM on BRAF V600E (setting [9]), less than 10 nM at BRAF G466V (setting [11]), greater than 500 nM at BRAF G469A (setting [13]) and 10 to 50 nM at BRAF D594G (setting [15]). The greatest degradation seen (Dmax) at BRAF V600E (setting [10]) was greater than 70%; on BRAF G466V (setting [12]), 30 to 70%; on BRAF G469A (setting [14]), less than 30%; at BRAF D594G (setting [16]), 30 to 70%.

Regarding `CCCS(=O)(=O)Nc1cccc(-c2nc(C3CCN(CC4CCN(C[C@H]5CC[C@H](Oc6ccc(C7CCC(=O)NC7=O)cc6)CC5)CC4)CC3)sc2-c2ccnc(N)n2)c1F` (mixture of isomers) [Compound 225, N-{3-[5-(2-aminopyrimidin-4-yl)-2-{1-[(1-{[(1r,4r)-4-{4-[(3RS)-2,6-dioxopiperidin-3-yl]phenoxy}cyclohexyl]methyl}piperidin-4-yl)methyl]piperidin-4-yl}-1,3-thiazol-4-yl]-2-fluorophenyl}propane-1-sulfonamide], the DC50 at BRAF V600E (setting [1]) was 10 to 50 nM; at BRAF G466V (setting [3]), greater than 500 nM; on BRAF G469A (setting [5]), greater than 500 nM; at BRAF D594G (setting [7]), greater than 500 nM. Besides, the maximal degradation (Dmax) is greater than 70% at BRAF V600E (setting [2]), 30 to 70% on BRAF G466V (setting [4]), less than 30% on BRAF G469A (setting [6]) and 30 to 70% at BRAF D594G (setting [8]).

`CCCS(=O)(=O)Nc1cccc(-c2nc(C(C)(C)C)sc2-c2ccnc(Nc3cnn(CC4CCN(C(=O)[C@H]5CC[C@H](Oc6ccc(C7CCC(=O)NC7=O)cc6)CC5)CC4)c3)n2)c1F` (mixture of isomers) [Compound 118, N-{3-[2-tert-butyl-5-(2-{[1-({1-[(1r,4r)-4-{4-[(3RS)-2,6-dioxopiperidin-3-yl]phenoxy}cyclohexanecarbonyl]piperidin-4-yl}methyl)-1H-pyrazol-4-yl]amino}pyrimidin-4-yl)-1,3-thiazol-4-yl]-2-fluorophenyl}propane-1-sulfonamide]: the DC50 was less than 10 nM on BRAF V600E (setting [1]), greater than 500 nM at BRAF G466V (setting [3]), greater than 500 nM on BRAF G469A (setting [5]) and greater than 500 nM on BRAF D594G (setting [7]). The maximal degradation (Dmax) is greater than 70% at BRAF V600E (setting [2]), less than 30% at BRAF G466V (setting [4]), less than 30% on BRAF G469A (setting [6]) and 30 to 70% on BRAF D594G (setting [8]).

Regarding `O=C1CCN(c2ccc(N3CCC(CN4CCN(c5ccc(-n6cc(-c7cc(Cl)cc(NS(=O)(=O)N8CC(F)C8)c7F)c(-c7ccncc7)n6)cc5)CC4)CC3)nc2)C(=O)N1` [Compound 368, N-[5-chloro-3-(1-{4-[4-({1-[5-(2,4-dioxo-1,3-diazinan-1-yl)pyridin-2-yl]piperidin-4-yl}methyl)piperazin-1-yl]phenyl}-3-(pyridin-4-yl)-1H-pyrazol-4-yl)-2-fluorophenyl]-3-fluoroazetidine-1-sulfonamide], the DC50 is less than 10 nM at BRAF V600E (setting [9]), less than 10 nM on BRAF G466V (setting [11]), 10 to 50 nM on BRAF G469A (setting [13]) and less than 10 nM on BRAF D594G (setting [15]). In addition, the Dmax on BRAF V600E (setting [10]) is greater than 70%; on BRAF G466V (setting [12]), 30 to 70%; at BRAF G469A (setting [14]) it was 30 to 70%; at BRAF D594G (setting [16]) it was 30 to 70%.

Take `O=C1CCC(c2ccc(N3CCC(CN4CCN(c5ccc(-n6cc(-c7cc(Cl)cc(NS(=O)(=O)N8CCCC8)c7F)c(-c7ccncc7)n6)c(F)c5)CC4)CC3)nc2)C(=O)N1` (racemic) [Compound 266, Rac-(R)—N-(5-chloro-3-(1-(4-(4-((1-(5-(2,6-dioxopiperidin-3-yl)pyridin-2-yl)piperidin-4-yl)methyl)piperazin-1-yl)-2-fluorophenyl)-3-(pyridin-4-yl)-1H-pyrazol-4-yl)-2-fluorophenyl)pyrrolidine-1-sulfonamide]: the DC50 on BRAF V600E (setting [9]) was less than 10 nM; at BRAF G466V (setting [11]), less than 10 nM; at BRAF G469A (setting [13]) it was 10 to 50 nM; at BRAF D594G (setting [15]) it was less than 10 nM. Further, the Dmax is greater than 70% at BRAF V600E (setting [10]), greater than 70% at BRAF G466V (setting [12]), greater than 70% on BRAF G469A (setting [14]) and 30 to 70% at BRAF D594G (setting [16]).

Broadly, the DC50 is the midpoint of the concentration-degradation curve. One may read the Dmax as the greatest extent of degradation seen.
